Consider 16 compounds from ChEMBL document CHEMBL5230139, “Inhibitors of Eukaryotic Translational Machinery as Therapeutic Agents” (J Med Chem, 2021).

One data set deals with L1210. As to the kind of experiment: Anticancer activity against mouse L1210 cells allografted in mouse assessed as increase in survival rate. Format: functional.
The subject of data set [1] is SARS-CoV-2. The experiment in a line: Antiviral activity against SARS-CoV-2 infected in African green monkey Vero E6 cells assessed as inhibition of viral replication. Format: functional, organism-based. The note with it: Severe acute respiratory syndrome coronavirus 2, Vero C1008.
Data set [2] has as its system HeLa. As to the kind of experiment: Antiproliferative activity against human HeLa cells assessed as cell growth inhibition by [35S] methionine incorporation assay. Format: functional, cell-based.
Data set [3] relates to A549. As to the kind of experiment: Antiproliferative activity against human A549 cells assessed as cell growth inhibition incubated for 3 days. Format: functional, cell-based. The note with it: A549, 72 h.
The subject of data set [4] is P388. The experiment in a line: Antiproliferative activity against mouse P388 cells assessed as cell growth inhibition incubated for 3 days. Format: functional, cell-based. The note with it: P388, 72 h.
A short description of data set [5]: Inhibition of EIF1A (unknown origin). The arrangement: species or system Homo sapiens.
A further data set concerns SK-MEL-28. The experiment in a line: Antiproliferative activity against human SK-MEL-28 cells assessed as cell growth inhibition incubated for 3 days. Format: functional, cell-based. The settings on record: SK-MEL-28, 72 h.
A further data set concerns HT-29. The experiment in a line: Antiproliferative activity against human HT-29 cells assessed as cell growth inhibition incubated for 3 days. Format: functional, cell-based. The settings on record: HT-29, 72 h.
Data set [6] relates to P388. As to the kind of experiment: Inhibition of RNA synthesis in mouse P388 cells measured after 72 hrs. Format: functional, cell-based.
In data set [7] the test system is P388. The experiment in a line: Inhibition of DNA synthesis in mouse P388 cells measured after 72 hrs. Format: functional, cell-based. The settings on record: P388, 72 h.
The subject of data set [8] is P388. The experiment in a line: Inhibition of protein synthesis in mouse P388 cells measured after 72 hrs. Format: functional, cell-based. The note with it: P388, 72 h.
For a further data set, the system named is H2K mdx. As to the kind of experiment: (§1) In vivo activation of dystrophin in mouse H2K mdx cells assessed as increase in production of dystrophin protein. Format: functional.
Data set [9] deals with Cystic fibrosis transmembrane conductance regulator (Homo sapiens), P13569 [UNDEFINED MUTATION]. As to the kind of experiment: In vivo activation of human […]-G542X mutant xenografted in mouse model assessed as induction of […] channel expression at 34 mg/kg administered daily. Format: functional, organism-based.
Cystic fibrosis transmembrane conductance regulator (Homo sapiens), P13569 [UNDEFINED MUTATION], sequence (P13569 whole entry, looked up): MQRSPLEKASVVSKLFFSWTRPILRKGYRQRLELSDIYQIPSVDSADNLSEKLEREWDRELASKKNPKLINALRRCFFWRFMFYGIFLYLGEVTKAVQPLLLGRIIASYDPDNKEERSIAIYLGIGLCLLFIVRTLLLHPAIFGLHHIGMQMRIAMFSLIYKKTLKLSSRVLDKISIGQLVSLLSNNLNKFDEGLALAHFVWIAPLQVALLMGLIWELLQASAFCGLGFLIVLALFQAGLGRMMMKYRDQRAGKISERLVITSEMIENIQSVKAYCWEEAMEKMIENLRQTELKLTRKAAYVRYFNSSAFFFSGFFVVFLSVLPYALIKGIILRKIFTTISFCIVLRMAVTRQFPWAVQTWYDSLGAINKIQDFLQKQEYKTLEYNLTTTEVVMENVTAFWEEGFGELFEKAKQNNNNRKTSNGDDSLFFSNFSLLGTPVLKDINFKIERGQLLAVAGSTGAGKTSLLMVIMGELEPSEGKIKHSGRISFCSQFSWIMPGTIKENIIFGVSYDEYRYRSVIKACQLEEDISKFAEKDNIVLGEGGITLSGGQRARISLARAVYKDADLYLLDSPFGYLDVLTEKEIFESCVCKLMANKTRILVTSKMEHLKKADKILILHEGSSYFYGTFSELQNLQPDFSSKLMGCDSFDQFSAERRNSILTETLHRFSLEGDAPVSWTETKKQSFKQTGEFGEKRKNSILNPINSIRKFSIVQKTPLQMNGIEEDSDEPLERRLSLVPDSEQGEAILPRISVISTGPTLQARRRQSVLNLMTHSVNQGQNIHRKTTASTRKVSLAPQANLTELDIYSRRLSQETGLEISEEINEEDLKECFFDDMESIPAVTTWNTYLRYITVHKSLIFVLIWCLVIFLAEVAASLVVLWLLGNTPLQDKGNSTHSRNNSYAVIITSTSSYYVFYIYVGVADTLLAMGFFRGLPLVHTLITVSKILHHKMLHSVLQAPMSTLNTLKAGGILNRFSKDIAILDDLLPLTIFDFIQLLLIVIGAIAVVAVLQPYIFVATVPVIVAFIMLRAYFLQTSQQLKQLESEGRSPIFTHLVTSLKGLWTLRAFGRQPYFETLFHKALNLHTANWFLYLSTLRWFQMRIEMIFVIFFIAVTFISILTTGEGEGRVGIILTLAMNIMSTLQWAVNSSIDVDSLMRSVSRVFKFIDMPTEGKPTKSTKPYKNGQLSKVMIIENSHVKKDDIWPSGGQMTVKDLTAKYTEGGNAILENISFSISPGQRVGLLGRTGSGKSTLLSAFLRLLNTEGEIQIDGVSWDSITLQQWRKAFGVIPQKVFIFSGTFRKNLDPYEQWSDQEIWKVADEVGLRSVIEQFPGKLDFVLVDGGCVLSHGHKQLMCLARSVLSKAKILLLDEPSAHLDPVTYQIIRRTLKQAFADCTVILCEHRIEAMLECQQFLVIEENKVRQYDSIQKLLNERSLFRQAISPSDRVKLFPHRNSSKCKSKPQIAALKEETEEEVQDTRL
For the next data set, the system named is OCI-AML2. The experiment in a line: Antiproliferative activity against human OCI-AML2 cells assessed as cell growth inhibition incubated for 48 hrs by MTS assay. The settings on record: OCI-AML2, 48 h. Format: functional, cell-based.
In another data set the test system is OCI-AML-3. The experiment in a line: Antiproliferative activity against human OCI-AML-3 cells assessed as cell growth inhibition incubated for 48 hrs by MTS assay. Format: functional, cell-based. The note with it: OCI-AML-3, 48 h.
A further data set has as its system U-937. The experiment in a line: Antiproliferative activity against human U-937 cells assessed as cell growth inhibition incubated for 48 hrs by MTS assay. The note with it: U-937, 48 h. Format: functional, cell-based.
A further data set relates to HL-60. As to the kind of experiment: Antiproliferative activity against human HL-60 cells assessed as cell growth inhibition incubated for 48 hrs by MTS assay. Format: functional, cell-based. The note with it: HL-60, 48 h.
The test system of the next data set is NB-4. As to the kind of experiment: Antiproliferative activity against human NB-4 cells assessed as cell growth inhibition incubated for 48 hrs by MTS assay. Format: functional, cell-based. The note with it: NB-4, 48 h.
Data set [10] is described as follows: Cytotoxicity against mouse NIH/3T3 cells assessed as reduction in cell viability incubated for 4 days by SRB assay. Format: toxicity, cell-based, NIH3T3.
The subject of data set [11] is HCT-116. As to the kind of experiment: Antiproliferative activity against human HCT-116 cells assessed as cell growth inhibition incubated for 24 by 14C-thymidine incorporation assay. Format: functional, cell-based.
Data set [12] concerns A549. The experiment in a line: Antiproliferative activity against human A549 cells assessed as cell growth inhibition incubated for 24 by 14C-thymidine incorporation assay. Format: functional, cell-based.
The subject of data set [13] is HCT-116. As to the kind of experiment: Antiproliferative activity against human HCT-116 cells assessed as cell growth inhibition. Format: functional, cell-based.
In a further data set the test system is 3T3-L1. The experiment in a line: Cytotoxicity against mouse 3T3-L1 adipocyte assessed as inhibition of fat accumulation incubated for 30 mins. The note with it: 3T3-L1, 0.5 h. Format: toxicity, cell-based.
For data set [14], the system named is SARS-CoV-2. The experiment in a line: Antiviral activity against SARS CoV-2 clinical isolate 2019-nCoV infected with African green monkey Vero E6 cells by qRT-PCR analysis. The settings on record: Severe acute respiratory syndrome coronavirus 2, 2019-nCoV, Vero C1008. Format: functional, organism-based.
Data set [15] in a line: as §1. Format: functional.
Data set [16] can be described thus: Inhibition of EIF1A in human Jurkat cells assessed as reduction in T-cell receptor-mediated IL-2 expression. Format: cell-based.
The test system of data set [17] is HeLa. As to the kind of experiment: Antiproliferative activity against human HeLa cells assessed as cell growth inhibition. Format: functional, cell-based.
A short description of data set [18]: Antiproliferative activity against mouse JB6 Cl 41-5a cells assessed as cell growth inhibition. Format: functional, cell-based.

Numbered stars: 1 amine (or outer) side, 2 acyl side, 3 side chain; on linkers, the order of the positions; unused ones are H or OH. Bridge positions count the residues as written; N and C are the ends. Square brackets hold non-standard residues; d marks the D form. Peptide text beside a SMILES is read from it. X1 = CC[C@H](C)[C@@H](N[*:1])[C@@H](O)CC(=O)O[C@H](C(=O)[C@H](C)C(=O)[*:2])C(C)C; NMeY = CN[C@@H](Cc1ccc(O)cc1)C(=O)O; dNMeL = CN[C@H](CC(C)C)C(=O)O Bounds are passed on as bounds.

In the case of `CN1C(=O)N[C@H]2[C@@H]3NC(=O)c4ccc(Br)n4[C@@H]3C[C@]21O` [AGELASTATIN A], the Survival in the data set on L1210 is reported as 63%.

Consider `COC(=O)C[C@](O)(CCCC(C)(C)O)C(=O)O[C@@H]1C(OC)=C[C@]23CCCN2CCc2cc4c(cc2[C@H]13)OCO4` [OMACETAXINE MEPESUCCINATE], for which, in the data set with SARS-CoV-2 [1], the EC50 stood at 60 nM.

For the compound `COc1ccc([C@@]23Oc4cc(OC)cc(OC)c4[C@]2(O)[C@H](O)[C@H](C(=O)N(C)C)[C@H]3c2ccccc2)cc1` [ROCAGLAMIDE], the IC50 in the data set with HeLa [2] worked out at 100 nM.

On to `CC[C@H](C)[C@H]1NC(=O)[C@@H](NC(=O)[C@@H](CC(C)C)N(C)C(=O)[C@@H]2CCCN2C(=O)C(C)=O)[C@@H](C)OC(=O)[C@H](Cc2ccc(OC)cc2)N(C)C(=O)[C@@H]2CCCN2C(=O)[C@H](CC(C)C)NC(=O)[C@@H](C)C(=O)[C@H](C(C)C)OC(=O)C[C@@H]1O` [PLITIDEPSIN], for which the IC50 with A549 [3] was 0.2 nM; in the data set on P388 [4], 0.2 nM; in [5] it was 500 nM; in the data set with SK-MEL-28 it was 0.5 nM; in the data set on HT-29, 0.5 nM; with P388 [6] (Mus musculus, P388, 72 h, read-out: IC50) it was over 1000 nM. Moreover, the results for the IC50 in the data set on P388 [7] and in the data set on P388 [8] were 100 nM and 500 nM, respectively.

With GENTAMICIN, the Activity (with H2K mdx; in data set [9]) was 10% throughout.

Consider `COC(=O)[C@H]1[C@@H](O)[C@@]2(O)c3c(OC)cc(O[C@@H]4O[C@@H]([C@H](O)CO)CO[C@H]4OC)cc3O[C@@]2(c2ccc(OC)cc2)[C@@H]1c1ccccc1` [SILVESTROL], for which the concentration for half-maximal inhibition (IC50) in the data set on HeLa [2] came to 20 nM; with OCI-AML2 it was 4 nM; in the data set on OCI-AML-3, 4 nM; with U-937, 4 nM; with HL-60, 4 nM; with NB-4 it was 4 nM.

Regarding `COc1ccc([C@@]23Oc4cc(OC)cc(OC)c4[C@@]24NC(C)=N[C@@]4(O)[C@H](C(=O)N(C)OC)[C@H]3c2ccccc2)cc1`, the IC50 at 4 days in [10] came to 2 nM.

Consider `CC[C@H](C)[C@H]1NC(=O)[C@@H](NC(=O)[C@@H](CC(C)C)N(C)C(=O)[C@@H]2CCCN2C(C)=O)[C@@H](C)OC(=O)[C@H](Cc2ccc(OC)cc2)N(C)C(=O)[C@@H]2CCCN2C(=O)[C@H](CC(C)C)NC(=O)[C@@H](C)C(=O)[C@H](C(C)C)OC(=O)C[C@@H]1O` (Ac-P[dNMeL]T[X1]LP[NMeY](Me); ester 3-C), for which inhibition in data set [5] was half-maximal at 100 nM (IC50).

As to `CONC(=O)[C@H]1[C@@H](O)[C@@]2(O)c3c(OC)cc(OC)cc3O[C@@]2(c2ccc(OC)cc2)[C@@H]1c1ccccc1`, the IC50 at 4 days in [10] was 9 nM.

Consider `COc1cc(C[C@H]2NC(=O)[C@H](C(C)C)N(C)C(=O)/C=C\C[C@@H](OC)/C(C)=C/C=C/[C@@H](C)[C@@H](c3ccccc3)OC(=O)[C@H](C(C)C)NC2=O)ccc1O`, for which the IC50 was 49 nM in the data set with HCT-116 [11] and 20 nM with A549 [12].

Regarding `CC[C@H](C)[C@H]1NC(=O)[C@@H]([C@H](O)C(C)C)NC(=O)[C@@H](C)N(C)C(=O)[C@H](C)N(C)C(=O)[C@H](CC(C)C)NC(=O)[C@H](CC(C)C)N(C)C(=O)[C@H](C)N(C)C1=O`, the IC50 in the data set on HCT-116 [13] came out at 71 nM. In addition, in the data set with 3T3-L1, the EC50 is 20 nM.

Take `CC[C@H](C)[C@H]1NC(=O)[C@@H](NC(=O)[C@@H](CC(C)C)NC)[C@@H](C)OC(=O)[C@H](Cc2ccc(OC)cc2)N(C)C(=O)[C@@H]2CCCN2C(=O)[C@H](CC(C)C)NC(=O)[C@@H](C)C(=O)[C@H](C(C)C)OC(=O)C[C@@H]1O` [DIDEMNIN A] (H-[dNMeL]T[X1]LP[NMeY](Me); ester 2-C): the IC50 is 12 nM in the data set on A549 [3]; 10 nM with P388 [4]; 400 nM in data set [5]; 20 nM with SK-MEL-28; 20 nM in the data set with HT-29; “Not Active” in the data set with P388 [6] (p388). The IC50 is 1000 nM in the data set on P388 [7] and 400 nM with P388 [8].

On to `NC(=O)c1ncn([C@@H]2O[C@H](CO)[C@@H](O)[C@H]2O)n1` [RIBAVIRIN], for which the concentration giving a half-maximal response (EC50) in the data set on SARS-CoV-2 [14] was found to be 110000 nM.

With `O=C(O)c1cccc(-c2noc(-c3ccccc3F)n2)c1` [ATALUREN], the Activity in [15] worked out at 20%.

Turning to `C/C1=C/C=C\C(=O)O[C@H](/C=C(C)/C=C/C=C/CN(C)C)Cc2csc(n2)CCCCC(=O)O[C@H](C)C1`, the IC50 in data set [16] came out at 0.8 nM.

For `C=C1C[C@](OC)([C@H](O)C(=O)N[C@H]2OCO[C@H]3[C@@H]2O[C@H](C[C@H](O)CO)C(C)(C)[C@@H]3OC)O[C@H](C)[C@@H]1C` [MYCALAMIDE A], the figures for the IC50 (with HeLa [17]; in data set [18]) were 5 nM and 1 nM, respectively.
